Read-outs that look alike come from different tables or passages of the source. Bounds are passed on as bounds.

One data set in a line: Water solubility. As to conditions: methanesulfonate salt. The data set is classed as physicochemical.
For the next data set, the system named is locomotor activity. Nature of the data set: Mouse Screen (decrease in locomotor activity). The data set is classed as in vivo. As to conditions: po, read-out: Screen (mouse) MED. An excerpt: (§1) Results given in: mg/kg po/mouse
Mouse Screen: The minimal effective dose (MED) is the lowest oral dose producing an obvious decrease in locomotor activity, using observational techniques. Groups of 3 mice are given decreasing oral doses at 0.5 log intervals (300, 100, 30 . . . etc.) until no behavioral effects are evident. Decrease of locomotor activity is indicative of general central nervous system depressant activity.

Data set [1] relates to amphetamine hyperactivity. Nature of the data set: Mouse Anti-Amphetamine Activity (A.A.). The data set is classed as in vivo. As to conditions: po, read-out: A.A. (mouse) ED50. How it is done:
as §1
Mouse Anti-Amphetamine Activity: Groups of 5 mice are given d-amphetamine sulfate 5 mg/kg sc 1 hour after oral administration of graded doses of test compound. The mice are placed in photocell activity units immediately after amphetamine administration and locomotor activity is recorded for 60 minutes. The ED50 is calculated as the dose causing a 50% reduction in locomotor activity relative to the activity of the amphetamine-treated control mice. Amphetamine antagonism at non-toxic doses appears to correlate with major tranquilizer activity in man.

Data set [2] deals with Conditioned Avoidance Response. Nature of the data set: Mouse Conditioned Avoidance Response (C.A.R.). The data set is classed as in vivo. The settings on record: po, read-out: C.A.R. (mouse) ED50. How it is done: (§2) Results given in: mg/kg po/mouse mg/kg po/rat
(§3) Mouse and Rat Conditioned Avoidance Response: Mice and rats are trained to jump out of a pit onto a ledge to avoid shock when presented with a light and sound conditioned stimulus. The animals are tested 1, 2, and 4 hours after administration of the test compound. Three to 4 dose levels and groups of 4-8 animals/dose are used. The ED50 is the dose producing a block of the C.A.R. in 50% of the animals. Blocking of the C.A.R. at non-toxic doses appears to correlate with major tranquilizer activity in man.

For data set [3], the system named is Conditioned Avoidance Response. Nature of the data set: Rat Conditioned Avoidance Response (C.A.R.). The data set is classed as in vivo. The settings on record: po, read-out: C.A.R. (rat) ED50. The procedure: as §2, §3
In data set [4] the test system is Conditioned Avoidance Response. The data set can be described thus: Dog Conditioned Avoidance Response (C.A.R.). The data set is classed as in vivo. The settings on record: po; for ED50: Canis lupus familiaris, read-out: C.A.R. (dog) ED50. The procedure: Results given in: mg/kg po/dog
Dog Conditioned Avoidance Response: Dogs are trained to raise a forelimb when presented with a conditioned stimulus (light) in order to avoid an electric shock. Blocks of 10 trials are given to groups of four dogs during a pretreatment period and at 1, 2, and 4 hours after oral administration of test compound. The ED50 values are calculated as the dose causing 50% of the animals to show five or more incorrect responses. Blocking of the C.A.R. at non-toxic doses appears to correlate with major tranquilizer activity in man.

The test system of the next data set is taming. The data set can be described thus: Rhesus Monkey Taming Effects. The data set is classed as in vivo. The settings on record: po; for minimal effective dose: Macaca mulatta, read-out: Taming (monkey) MED. The procedure:
(§4) Results given in: mg/kg po/monkey
Rhesus Monkey Taming Effects: Compounds are administered orally to groups of six rhesus monkeys. The behavior of the animals is then evaluated by observational means. Taming effects are determined by the ability of the observer to approach and touch the monkey. Compounds with major tranquilizer activity in man can produce a state of passive tameness in the rhesus monkey wherein it can be touched without provoking any of the threatening or aggressive behavior seen in the normal animal. The MED is the minimal oral dose at which some taming effect can be observed.

The subject of data set [5] is approach-avoidance ("conflict") situation. Nature of the data set: Rat Conflict (Approach-Avoidance) Test. The data set is classed as in vivo. As to conditions: for minimal effective dose: read-out: Conflict (rat) MED. The procedure:
Results given in: mg/kg po/rat
Rat Conflict (Approach-Avoidance) Test: Food deprived rats are trained to pass from one compartment to an adjacent one to obtain food. The training consists of three exposures to the test situation on day one of the experiment. The rats are given limited (1-2 hr) free access to food in their home cages on day one and are then food deprived for at least 18 hours. On day two of the experiment, the rats are given a control exposure to the test situation followed by a second exposure after 1/2 to 1 hour in which they are shocked after crossing and eating. Groups of 6-8 rats are then dosed orally with solvent or test compound and then reexposed to the test situation after 1 or 2 hours.
This effect is dose-related (and the MED is the minimum dose at which this effect is obtained); rats dosed with solvent only consistently show a high level of fear as evidenced by decreased mobility and absence of feeding when placed in the test situation after receiving a shock.

The test system of the next data set is approach-behavior. Nature of the data set: Rhesus Monkey Approach Effects. The data set is classed as in vivo. The settings on record: po; for minimal effective dose: Macaca mulatta, read-out: Approach (monkey) MED. The procedure:
as §4
Rhesus Monkey Approach Effects: Compounds are administered orally to groups of six rhesus monkeys. The behavior of the animals is then evaluated by observational means. […] The MED is the oral dose at which the animals show signs of decreased fear.

Setting [6] is: mouse, d-amphetamine sulfate 5 mg/kg sc 1 hour after compound, 60 minutes recording.
[7] abbreviates: mouse, tested 1, 2, and 4 hours after administration.
Setting [8] is: rat, tested 1, 2, and 4 hours after administration.
Setting [9] is: dog, 1, 2, and 4 hours after administration.
The mark [10] stands for this setting: po, rat, reexposed after 1 or 2 hours.
Where [11] appears, read: mouse, lowest dose producing obvious decrease in locomotor activity.

Consider `CS(=O)(=O)O.c1ccc2c(c1)CCc1cccc3c4c(n-2c13)CCN(CC1CC1)C4` [3-(cyclopropylmethyl)-1,2,3,4,8,9-hexahydropyrido[4',3':2,3]indolo[1,7-ab][1]benzazepine methanesulfonate], for which the solubility in “Water solubility” is more than 500 mg/mL.

Regarding `c1ccc2c(c1)CCc1cccc3c4c(n-2c13)CCN(CC1CC1)C4` [No. 3, 3-(cyclopropylmethyl)-1,2,3,4,8,9-hexahydropyrido[4',3':2,3]indolo[1,7-ab][1]benzazepine], the minimal effective dose was in the range of 30 to 100 mg/kg in the data set with locomotor activity (Mus musculus), 3 to 10 mg/kg with taming (rhesus monkey), 10 to 20 mg/kg in [5] (setting [10]) and 1 to 3 mg/kg in the data set on approach-behavior (rhesus monkey). The ED50 in [1] (setting [6]) was 6 mg/kg; in data set [2] (setting [7]), 20 mg/kg; in data set [3] (setting [8]), 40 mg/kg; in [4] (setting [9]), more than 20 mg/kg.

On to `Cl.c1ccc2c(c1)CCc1cccc3c4c(n-2c13)CCN(CC1CCCC1)C4` [No. 7, 3-(cyclopentylmethyl)-1,2,3,4,8,9-hexahydropyrido[4',3':2,3]indolo[1,7-ab][1]benzazepine hydrochloride], for which the figures for the minimal effective dose (with locomotor activity (setting [11]); with taming (rhesus monkey); in data set [5] (setting [10])) were 3 to 10 mg/kg, 1 to 3 mg/kg and more than 40 mg/kg, respectively. Besides, the ED50 in data set [1] (setting [6]) stood at 2 mg/kg; in data set [2] (setting [7]), 20 mg/kg; in data set [3] (setting [8]), 30 mg/kg; in data set [4] (setting [9]) it was 6 mg/kg.

As for `Cl.c1ccc2c(c1)CCc1cccc3c4c(n-2c13)CCN(CC1CCCCC1)C4` [No. 8, 3-(cyclohexylmethyl)-1,2,3,4,8,9-hexahydropyrido[4',3':2,3]indolo[1,7-ab][1]benzazepine hydrochloride], the minimal effective dose was 3 to 10 mg/kg in the data set with locomotor activity (setting [11]), 1 to 3 mg/kg with taming (rhesus monkey) and more than 40 mg/kg in data set [5] (setting [10]). The ED50 in data set [1] (setting [6]) was determined as 2 mg/kg; in data set [2] (setting [7]), 20 mg/kg; in data set [3] (setting [8]) it was 30 mg/kg; in data set [4] (setting [9]), 10 mg/kg.

For `CN(C)CCCN1c2ccccc2Sc2ccc(Cl)cc21` [chlorpromazine, reference compound], the minimal effective dose with locomotor activity (Mus musculus) was 3 to 10 mg/kg; in the data set with taming it was 10 to 30 mg/kg. For the same compound, the 50% effective dose (ED50) in [1] (Mus musculus, 1 h) came to 5 mg/kg; in data set [2] (Mus musculus, 4 h), 5 mg/kg; in data set [3] (Rattus norvegicus, 4 h) it was 10 mg/kg; in [4] (4 h), 6 mg/kg. Further, the “Conflict (rat) MED, symbol” value in [5] (po, rat) was “I”. Also, the “Approach (monkey) MED, symbol” value in the data set on approach-behavior (rhesus monkey) was “I”.

As to `CN1C(=O)CN=C(c2ccccc2)c2cc(Cl)ccc21` [diazepam, reference compound], the minimal effective dose in the data set on locomotor activity (Mus musculus) fell in the range of 3 to 10 mg/kg; in data set [5] (Rattus norvegicus, po), 3 to 10 mg/kg; in the data set with approach-behavior, 3 to 10 mg/kg. The “C.A.R. (dog) ED50, symbol” value in data set [4] (dog) is on record as “I”. Besides, the “Taming (monkey) MED, symbol” value in the data set with taming (rhesus monkey) was “I”. Also, the “decreased fear in the test animals, in words” value in data set [5] (rats cross to obtain food despite earlier shock, dose-related) is “apparent decreased fear in the test animals”.

By solubility is commonly meant the concentration that dissolves in the medium under given conditions. For orientation: ED50 means the dose at which the effect has come halfway, by size or by number of responders.

Values taken from US3959300A, “Novel indolobenzazepine derivatives, useful as tranquilizers” (priority 1974, dated 1976).
